These are literature values, as cited in US20210308204A1, “FORMULATIONS CONTAINING LIPOPHILIC EXTRACTS OF SPICY EDIBLE PLANTS USEFUL IN CONTROLLING PAIN AND INFLAMMATION” (priority 2018, published 2021).

The conditions of this data set: in vivo, po.

As for `C/C1=C\CC/C(C)=C/C[C@](O)(C(C)C)CC/C(C)=C/CC1` [serratol], the tmax entry was “about 15 minutes”.
